ChEMBL document CHEMBL4610119, “Lipophilic Triphosphate Prodrugs of Various Nucleoside Analogues” (J Med Chem, 2020)

Tests used:
[1] = Cytotoxicity in human CEM/0 cells assessed as reduction in cell viability incubated for 4 to 5 days
[2] = tested on: Human immunodeficiency virus 1; experiment: microbe, parasite or virus in culture; type: functional, organism-based; conditions: Human immunodeficiency virus 1, 3B, CCRF-CEM
Description: Antiviral activity against HIV1 3B infected in human CEM/0 cells assessed as inhibition of viral-induced giant cell formation incubated for 4 to 5 days by microscopy

[3] = Stability in aqueous 25 mM PBS at pH 7.3 assessed as hydrolysis half life by HPLC analysis; type: physicochemical
pig liver esterase = experiment: Stability in pH 7.3 PBS assessed as pig liver esterase mediated hydrolysis by measuring half life by HPLC analysis; type: ADME, Sus scrofa
[4] = Stability in human CEM/0 cell extracts assessed as hydrolysis half life by HPLC analysis; type: ADME, CCRF-CEM

Compound | CC50 ([1]; CEM/0 cells) [µM] | EC50 [2] [µM] | half-life [3] [h] | half-life (pig liver esterase) [h] | half-life [4] [h] | CC50 ([1]; ccrf-cem) [µM]
Cc1cn([C@@H]2C[C@H](CO)[C@@H](O)C2)c(=O)[nH]c1=O | > 250 | 36 | – | – | – | –
CCCCCCCCCCCCCCCCOC(=O)Oc1ccc(COP(=O)(OCc2ccc(OC(=O)CCCC)cc2)OP(=O)(O)OP(=O)(O)OC[C@H]2O[C@@H](n3cc(/C=C/Br)c(=O)[nH]c3=O)C[C@@H]2O)cc1.N.N (some centres not stated) | 43 | 1.49 | 62 | 7 | 1.31 | –
CCCCCCCCCCCCCCCCOC(=O)Oc1ccc(COP(=O)(OCc2ccc(OC(=O)CC)cc2)OP(=O)(O)OP(=O)(O)OC[C@H]2C[C@@H](n3cc(C)c(=O)[nH]c3=O)C[C@@H]2O)cc1.N.N (some centres not stated) | 36 | 0.52 | 74 | – | – | –
CCCCCCCCCCCCCCCCOC(=O)Oc1ccc(COP(=O)(OCc2ccc(OC(=O)CC)cc2)OP(=O)(O)OP(=O)(O)OC[C@@H]2C=C[C@H](n3cc(C)c(=O)[nH]c3=O)O2)cc1 (some centres not stated) | – | 0.027 | – | – | – | –
CCCCCCCCCCCCCCCCOC(=O)Oc1ccc(COP(=O)(OCc2ccc(OC(=O)CC)cc2)OP(=O)(O)OP(=O)(O)OC[C@H]2O[C@@H](n3cc(C)c(=O)[nH]c3=O)C[C@@H]2O)cc1.N.N (some centres not stated) | 14 | 10.8 | 76 | – | – | –
CCCCCCCCCCCCCCCCOC(=O)Oc1ccc(COP(=O)(OCc2ccc(OC(=O)CCCC)cc2)OP(=O)(O)OP(=O)(O)OC[C@H]2O[C@@H](n3cc(Cl)c(=O)[nH]c3=O)C[C@@H]2F)cc1.N.N (some centres not stated) | 42 | 2.59 | 66 | – | – | –
CCCCCCCCCCCCCCCCOC(=O)Oc1ccc(COP(=O)(OCc2ccc(OC(=O)CC)cc2)OP(=O)(O)OP(=O)(O)OC[C@@H]2O[C@H](n3cc(F)c(N)nc3=O)CS2)cc1.N.N (some centres not stated) | 35 | 0.026 | 45 | 2.6 | 1.49 | –
CCCCCCCCCCCCCCCCOC(=O)Oc1ccc(COP(=O)(OCc2ccc(OC(=O)CCCC)cc2)OP(=O)(O)OP(=O)(O)OC[C@H]2O[C@@H](n3cc(C)c(=O)[nH]c3=O)C[C@@H]2N=[N+]=[N-])cc1.N.N (some centres not stated) | 42 | 0.0037 | 84 | 4 | 5 | –
CCCCCCCCCCCCCCCCOC(=O)Oc1ccc(COP(=O)(OCc2ccc(OC(=O)CC)cc2)OP(=O)(O)OP(=O)(O)OC[C@H]2O[C@@H](n3cc(Cl)c(=O)[nH]c3=O)C[C@H]2N=[N+]=[N-])cc1.N.N (some centres not stated) | 45 | > 45 | 67 | 3 | 2.52 | –
CCCCCCCCCCCCCCCCOC(=O)Oc1ccc(COP(=O)(OCc2ccc(OC(=O)CCCC)cc2)OP(=O)(O)OP(=O)(O)OC[C@@H]2O[C@H](n3cc(F)c(N)nc3=O)CS2)cc1.N.N (some centres not stated) | 40.5 | 0.0043 | 36 | 2.26 | 2.78 | –
CCCCCCCCCCCCCCCCOC(=O)Oc1ccc(COP(=O)(OCc2ccc(OC(=O)CC)cc2)OP(=O)(O)OP(=O)(O)OC[C@H]2O[C@@H](n3cc(/C=C/Br)c(=O)[nH]c3=O)C[C@@H]2O)cc1.N.N (some centres not stated) | 43 | 11.2 | 56 | – | – | –
CCCCCCCCCCCCCCCCOC(=O)Oc1ccc(COP(=O)(OCc2ccc(OC(=O)CC)cc2)OP(=O)(O)OP(=O)(O)OC[C@H]2O[C@@H](n3cc(C)c(=O)[nH]c3=O)C[C@@H]2N=[N+]=[N-])cc1.N.N (some centres not stated) | 48 | 0.0094 | 83 | – | – | –
CCCCCCCCCCCCCCCCOC(=O)Oc1ccc(COP(=O)(O)OP(=O)(O)OP(=O)(O)OC[C@H]2O[C@@H](n3cc(Cl)c(=O)[nH]c3=O)C[C@@H]2F)cc1 | 54 | 2.5 | – | – | – | –
[N-]=[N+]=N[C@@H]1C[C@H](n2cc(Cl)c(=O)[nH]c2=O)O[C@@H]1CO | > 100 | > 100 | – | – | – | –
CCCCCCCCCCCCCCCCOC(=O)Oc1ccc(COP(=O)(OCc2ccc(OC(=O)CC)cc2)OP(=O)(O)OP(=O)(O)OC[C@H]2O[C@@H](n3cc(Cl)c(=O)[nH]c3=O)C[C@@H]2F)cc1.N.N (some centres not stated) | 42 | 1.28 | 56 | – | 1.64 | –
CCCCCCCCCCCCCCCCOC(=O)Oc1ccc(COP(=O)(OCc2ccc(OC(=O)CCCC)cc2)OP(=O)(O)OP(=O)(O)OC[C@@H]2CC[C@H](n3cnc4c(=O)[nH]cnc43)O2)cc1.N.N (some centres not stated) | 43 | 0.93 | 41 | 3.5 | 1.57 | –
CCCCCCCCCCCCCCCCOC(=O)Oc1ccc(COP(=O)(OCc2ccc(OC(=O)CCCC)cc2)OP(=O)(O)OP(=O)(O)OC[C@@H]2C=C[C@H](n3cc(C)c(=O)[nH]c3=O)O2)cc1 (some centres not stated) | – | 0.032 | – | – | – | –
CCCCCCCCCCCCCCCCOC(=O)Oc1ccc(COP(=O)(OCc2ccc(OC(=O)CC)cc2)OP(=O)(O)OP(=O)(O)OC[C@H]2O[C@@H](n3ccc(=O)[nH]c3=O)C[C@H]2N=[N+]=[N-])cc1.N.N (some centres not stated) | 44 | > 44 | 68 | – | 1.54 | –
[N-]=[N+]=N[C@@H]1C[C@H](n2ccc(=O)[nH]c2=O)O[C@@H]1CO | > 250 | > 250 | – | – | – | –
O=c1[nH]c(=O)n([C@H]2C[C@H](O)[C@@H](CO)O2)cc1/C=C/Br [BRIVUDINE] | 207 | > 250 | – | – | – | –
O=c1[nH]cnc2c1ncn2[C@H]1CC[C@@H](CO)O1 [DIDANOSINE] | > 250 | 16 | – | – | – | –
Cc1cn([C@H]2C[C@H](O)[C@@H](CO)O2)c(=O)[nH]c1=O [DOXRIBTIMINE] | 10.6 | 4.11 | – | – | – | –
Nc1nc(=O)n([C@@H]2CS[C@H](CO)O2)cc1F [EMTRICITABINE] | – | 0.01 | – | – | – | > 100
O=c1[nH]c(=O)n([C@H]2C[C@H](F)[C@@H](CO)O2)cc1Cl [RALURIDINE] | 188 | > 250 | – | – | – | –
Cc1cn([C@H]2C=C[C@@H](CO)O2)c(=O)[nH]c1=O [STAVUDINE] | – | 0.43 | – | – | – | > 50
Cc1cn([C@H]2C[C@H](N=[N+]=[N-])[C@@H](CO)O2)c(=O)[nH]c1=O [ZIDOVUDINE] | > 100 | 0.005 | – | – | – | –
